Where two headings read alike, the source gives them in different places.
Assays:
[1] = target: T1, yeast α-glucosidase (Saccharomyces cerevisiae, UniProt P53341); experiment: biochemical; details: for inhibition at 50 µM: read-out: Inhibition at 50 μM (%), 50 μM
T1 construct: purchased Sigma Aldrich
Procedure: Berberrubine derivatives will be assayed for yeast α-glucosidase inhibitory activity. The protocol described by Ramadhan et al. will be used[37]. Briefly, yeast α-glucosidase (0.1 U/mL) and substrate (1 mM p-nitrophenyl-α-D-glucopyranoside) were dissolved in 0.1 M phosphate buffer (pH 6.9). A 10 μL test sample was pre-incubated with α-glucosidase (40 μL) at 37 °C for 10 min. A substrate solution (50 μL) was then added to the reaction mixture and incubated at 37 °C for an additional 20 min, and terminated by adding 1 M Na2CO3 solution (100 μL). […] The percentage inhibition of activity was calculated as follows: % Inhibition = [(A0 − A1)/A0] × 100, where: A0 is the absorbance without the sample; A1 is the absorbance with the sample. The IC50 value was deduced from the plot of % inhibition versus the concentration of the test sample.

[2] = target: T1, yeast α-glucosidase; experiment: kinetic study of α-glucosidase inhibition (Lineweaver–Burk plots); type: biochemical; details: for inhibition type: Lineweaver–Burk plot analysis
Procedure: To further investigate how these 9-O-berberrubine carboxylates interact with yeast α-glucosidase, the inhibition types of four potential compounds, 9, 26, 28 and 33 were studied by using Lineweaver–Burk plot analysis.
The mode of inhibition of α-glucosidase was determined from Lineweaver–Burk plots. The inhibition type was determined using various concentrations of p-NPG substrate in the absence or presence of compounds at different concentrations. The Ki value was determined from secondary plots of slope versus [I].

[3] = cytotoxicity study with HEK-293 cells (CellTiter 96 AQueous One); type: cell-based; details: human
Procedure: HEK-293 cells (ATCC® CRL-1573™) were maintained in growth medium consisting of DMEM (Gibco®, Langley, OK) supplemented with 10% fetal bovine serum (Gibco®, Langley, OK), 100 I.U./ml penicillin (Bio Basic Canada®, Ontario, CA), 100 μg/ml streptomycin (Bio Basic Canada®, Ontario, CA), and 10 mM HEPES (4-(2-hydroxyethyl)-1-piperazineethanesulfonic acid) (Sigma Aldrich®, St. Louis, MO) at 37 °C under 5% CO2.
The cytotoxicity of the active compounds (9, 26, 28 and 33) was tested with HEK-293 cells. The cells were seeded at 1 × 10^4 cells per well into 96-well plates in growth medium and incubated overnight. The compounds were prepared at the indicated concentrations in dimethylsulfoxide (DMSO) and added to the cells. Cells were incubated for 48 h before analyzing the cell viability using CellTiter 96® AQueous One Solution Cell Proliferation Assay kit (Promega, USA) according to manufacturer’s protocol. The plate was read at the A490 by VICTORTM X3 microplate reader (PerkinElmer, USA). The 1%DMSO treated cells as a positive control (100% viability). The CC50 values were calculated from nonlinear regression analysis. Results were reported as means and standard error mean (SEM) from three biological independent experiments.

T1 sequence (P53341 whole entry): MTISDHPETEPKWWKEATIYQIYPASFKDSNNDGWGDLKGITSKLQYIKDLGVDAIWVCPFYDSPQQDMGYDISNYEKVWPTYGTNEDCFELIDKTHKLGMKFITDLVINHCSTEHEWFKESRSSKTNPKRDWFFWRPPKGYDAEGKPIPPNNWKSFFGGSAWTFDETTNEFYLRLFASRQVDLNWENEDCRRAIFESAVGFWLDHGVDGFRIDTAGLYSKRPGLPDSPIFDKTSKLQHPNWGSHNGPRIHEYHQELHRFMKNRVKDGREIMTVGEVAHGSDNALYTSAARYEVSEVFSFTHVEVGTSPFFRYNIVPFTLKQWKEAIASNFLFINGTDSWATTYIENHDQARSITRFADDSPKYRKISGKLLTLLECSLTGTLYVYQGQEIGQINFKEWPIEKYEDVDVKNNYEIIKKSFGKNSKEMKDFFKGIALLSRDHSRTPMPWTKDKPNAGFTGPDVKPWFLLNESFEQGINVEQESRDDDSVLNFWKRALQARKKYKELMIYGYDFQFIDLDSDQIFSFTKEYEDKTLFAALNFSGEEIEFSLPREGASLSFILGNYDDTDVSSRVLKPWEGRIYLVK

SMILES | IC50 ([1]; read-out: IC50) [µM] | inhibition at 50 µM [1] [%] | IC50 [1] [µM] | other results
COc1ccc2cc3[n+](cc2c1OC(=O)c1ccccc1OCc1ccccc1)CCc1cc2c(cc1-3)OCO2.[Cl-] [Compound 9, 9-((2-(benzyloxy)benzoyl)oxy)-10-methoxy-5,6-dihydro-[1,3]dioxolo[4,5-g]isoquinolino[3,2-a]isoquinolin-7-ium chloride] | 2.29 ± 0.08 | 100 |  | inhibition type [2]: competitive; CC50 at 48 h [3]: 30.5 µM
COc1ccc2cc3[n+](cc2c1OC(=O)c1ccccc1F)CCc1cc2c(cc1-3)OCO2 [Compound 13, 9-((2-fluorobenzoyl)oxy)-10-methoxy-5,6-dihydro-[1,3]dioxolo[4,5-g]isoquinolino[3,2-a]isoquinolin-7-ium chloride] |  | 72 | 24.9 ± 1.78 | 
COc1ccc2cc3[n+](cc2c1OC(=O)c1cccc(F)c1)CCc1cc2c(cc1-3)OCO2 [Compound 14, 9-((3-fluorobenzoyl)oxy)-10-methoxy-5,6-dihydro-[1,3]dioxolo[4,5-g]isoquinolino[3,2-a]isoquinolin-7-ium chloride] |  | 63 | 32.8 ± 1.88 | 
COc1ccc2cc3[n+](cc2c1OC(=O)c1ccc(F)cc1)CCc1cc2c(cc1-3)OCO2 [Compound 15, 9-((4-fluorobenzoyl)oxy)-10-methoxy-5,6-dihydro-[1,3]dioxolo[4,5-g]isoquinolino[3,2-a]isoquinolin-7-ium chloride] |  | 73.9 | 21.3 ± 1.97 | 
COc1ccc2cc3[n+](cc2c1OC(=O)c1ccccc1Br)CCc1cc2c(cc1-3)OCO2 [Compound 16, 9-((2-bromobenzoyl)oxy)-10-methoxy-5,6-dihydro-[1,3]dioxolo[4,5-g]isoquinolino[3,2-a]isoquinolin-7-ium chloride] | 6.45 ± 0.52 | 95.3 |  | 
COc1ccc2cc3[n+](cc2c1OC(=O)c1ccccc1I)CCc1cc2c(cc1-3)OCO2 [Compound 17, 9-((2-iodobenzoyl)oxy)-10-methoxy-5,6-dihydro-[1,3]dioxolo[4,5-g]isoquinolino[3,2-a]isoquinolin-7-ium chloride] | 9.24 ± 0.5 | 94.9 |  | 
COc1ccc2cc3[n+](cc2c1OC(=O)c1ccccc1C(F)(F)F)CCc1cc2c(cc1-3)OCO2 [Compound 18, 10-methoxy-9-((2-(trifluoromethyl)benzoyl)oxy)-5,6-dihydro-[1,3]dioxolo[4,5-g]isoquinolino[3,2-a]isoquinolin-7-ium chloride] |  | 86.1 | 15.7 ± 1.34 | 
COc1ccc2cc3[n+](cc2c1OC(=O)c1ccccc1[N+](=O)[O-])CCc1cc2c(cc1-3)OCO2 [Compound 19, 10-methoxy-9-((2-nitrobenzoyl)oxy)-5,6-dihydro-[1,3]dioxolo[4,5-g]isoquinolino[3,2-a]isoquinolin-7-ium chloride] |  | 81.6 | 10.5 ± 1.03 | 
COc1ccc2cc3[n+](cc2c1OC(=O)c1ccc(C#N)cc1)CCc1cc2c(cc1-3)OCO2 [Compound 20, 9-((4-cyanobenzoyl)oxy)-10-methoxy-5,6-dihydro-[1,3]dioxolo[4,5-g]isoquinolino[3,2-a]isoquinolin-7-ium chloride] |  | 55.6 | 26.5 ± 2.5 | 
COc1ccc2cc3[n+](cc2c1OC(=O)c1c(Cl)cccc1Cl)CCc1cc2c(cc1-3)OCO2 [Compound 21, 9-((2,6-dichlorobenzoyl)oxy)-10-methoxy-5,6-dihydro-[1,3]dioxolo[4,5-g]isoquinolino[3,2-a]isoquinolin-7-ium chloride] |  | 96.6 | 5.86 ± 0.35 | 
COc1ccc2cc3[n+](cc2c1OC(=O)c1ccccc1C)CCc1cc2c(cc1-3)OCO2 [Compound 22, 10-methoxy-9-((2-methylbenzoyl)oxy)-5,6-dihydro-[1,3]dioxolo[4,5-g]isoquinolino[3,2-a]isoquinolin-7-ium chloride] |  | 90.6 | 18.1 ± 0.68 | 
COc1ccc2cc3[n+](cc2c1OC(=O)c1ccc(C)cc1)CCc1cc2c(cc1-3)OCO2 [Compound 23, 10-methoxy-9-((4-methylbenzoyl)oxy)-5,6-dihydro-[1,3]dioxolo[4,5-g]isoquinolino[3,2-a]isoquinolin-7-ium chloride] |  | 78.9 | 17.5 ± 1.11 | 
CCc1ccc(C(=O)Oc2c(OC)ccc3cc4[n+](cc23)CCc2cc3c(cc2-4)OCO3)cc1 [Compound 24, 9-((4-ethylbenzoyl)oxy)-10-methoxy-5,6-dihydro-[1,3]dioxolo[4,5-g]isoquinolino[3,2-a]isoquinolin-7-ium chloride] |  | 81 | 12.5 ± 0.99 | 
COc1ccc2cc3[n+](cc2c1OC(=O)c1ccc(C(C)(C)C)cc1)CCc1cc2c(cc1-3)OCO2 [Compound 25, 9-((4-(tert-butyl)benzoyl)oxy)-10-methoxy-5,6-dihydro-[1,3]dioxolo[4,5-g]isoquinolino[3,2-a]isoquinolin-7-ium chloride] |  | 98.9 | 3.53 ± 0.31 | 
COc1ccc2cc3[n+](cc2c1OC(=O)c1cc(C(C)(C)C)cc(C(C)(C)C)c1)CCc1cc2c(cc1-3)OCO2.[Cl-] [Compound 26, 9-((3,5-di-tert-butylbenzoyl)oxy)-10-methoxy-5,6-dihydro-[1,3]dioxolo[4,5-g]isoquinolino[3,2-a]isoquinolin-7-ium chloride] |  | 99.8 | 1.61 ± 0.08 | Ki [2]: 10.7 µM; inhibition type [2]: competitive; CC50 at 48 h [3]: 18.2 µM
COc1ccc2cc3[n+](cc2c1OC(=O)c1cccc2ccccc12)CCc1cc2c(cc1-3)OCO2 [Compound 27, 9-((1-naphthoyl)oxy)-10-methoxy-5,6-dihydro-[1,3]dioxolo[4,5-g]isoquinolino[3,2-a]isoquinolin-7-ium chloride] | 2.67 ± 0.27 | 99.8 |  | 
COc1ccc2cc3[n+](cc2c1OC(=O)c1ccc2ccccc2c1)CCc1cc2c(cc1-3)OCO2.[Cl-] [Compound 28, 9-((2-naphthoyl)oxy)-10-methoxy-5,6-dihydro-[1,3]dioxolo[4,5-g]isoquinolino[3,2-a]isoquinolin-7-ium chloride] | 2.63 ± 0.23 | 95.7 |  | inhibition type [2]: competitive; Ki ([2]; secondary plots of slope versus [I], read-out: inhibition constants (Ki)): 25.3 µM; CC50 at 48 h [3]: 20.9 µM
COc1ccc2cc3[n+](cc2c1OC(=O)/C(C)=C/c1ccccc1)CCc1cc2c(cc1-3)OCO2 [Compound 30, (E)-10-methoxy-9-((2-methyl-3-phenylacryloyl)oxy)-5,6-dihydro-[1,3]dioxolo[4,5-g]isoquinolino[3,2-a]isoquinolin-7-ium chloride] |  | 91.9 | 10.3 ± 0.84 | 
COc1ccc2cc3[n+](cc2c1OC(=O)/C=C/c1ccc2c(c1)OCO2)CCc1cc2c(cc1-3)OCO2 [Compound 31, (E)-9-((3-(benzo[d][1,3]dioxol-5-yl)acryloyl)oxy)-10-methoxy-5,6-dihydro-[1,3]dioxolo[4,5-g]isoquinolino[3,2-a]isoquinolin-7-ium chloride] | 4.64 ± 0.55 | 98.9 |  | 
COc1ccc2cc3[n+](cc2c1OC(=O)/C=C/c1c(Cl)cccc1Cl)CCc1cc2c(cc1-3)OCO2 [Compound 32, (E)-9-((3-(2,6-dichlorophenyl)acryloyl)oxy)-10-methoxy-5,6-dihydro-[1,3]dioxolo[4,5-g]isoquinolino[3,2-a]isoquinolin-7-ium chloride] |  | 94.8 | 16 ± 0.67 | 
COc1ccc2cc3[n+](cc2c1OC(=O)Cc1c(Cl)cccc1Cl)CCc1cc2c(cc1-3)OCO2 [Compound 34, 9-(2-(2,6-dichlorophenyl)acetoxy)-10-methoxy-5,6-dihydro-[1,3]dioxolo[4,5-g]isoquinolino[3,2-a]isoquinolin-7-ium chloride] | 7.3 ± 0.51 | 93.9 |  | 
COc1ccc2cc3[n+](cc2c1OC(=O)C(c1ccccc1)c1ccccc1)CCc1cc2c(cc1-3)OCO2 [Compound 35, 9-(2,2-diphenylacetoxy)-10-methoxy-5,6-dihydro-[1,3]dioxolo[4,5-g]isoquinolino[3,2-a]isoquinolin-7-ium chloride] | 6.19 ± 0.32 | 95.2 |  | 

Source: publication PMC10620162, “Structure—yeast α-glucosidase inhibitory activity relationship of 9-O-berberrubine carboxylates” (Scientific Reports, 2023)
